5 substances from patent US11214803B2, “Modulators of YAP1 expression” (Ionis Pharmaceuticals, Inc., priority 2019, dated 2022) can be followed below.

Strand notation (5' to 3'): a small letter for the sugar, then the base; units joined by * are phosphorothioate-linked, units joined directly phosphodiester-linked; [ ] holds rarer units or linkages, { } end groups; capitals alone tell only the bases. k = constrained ethyl (cEt); [5mC] = 5-methylcytosine; d = 2'-deoxy (DNA)

The nature of data set [1]: Tolerability in Balb/c mice, body and organ weights (Example 14). The following applies: male Balb/c mice, 50 mg/kg s.c. twice a week for four weeks (8 treatments); for Kidney weight / Liver weight / Spleen weight: end of study (day 27); for body weight: measured on day 25. The format is in vivo. As to the method:
Groups of male Balb/c mice at 5-6 weeks of age (obtained from Taconic) were injected subcutaneously twice a week for four weeks (for a total of 8 treatments) with 50 mg/kg of modified oligonucleotides. One group of male Balb/c mice was injected with PBS. […]
Modified oligonucleotides that caused any changes in organ weights outside the expected range for modified oligonucleotides were excluded from further studies.

Data set [2] is described as follows: Tolerability in Balb/c mice, plasma chemistry markers (Example 14). The following applies: male Balb/c mice, 50 mg/kg s.c. twice a week for four weeks (8 treatments), day 27. The format is in vivo. As to the method: Balb/c mice were treated with modified oligonucleotides selected from studies described above and evaluated for changes in the levels of various plasma chemistry markers.
Groups of male Balb/c mice at 5-6 weeks of age (obtained from Taconic) were injected subcutaneously twice a week for four weeks (for a total of 8 treatments) with 50 mg/kg of modified oligonucleotides. One group of male Balb/c mice was injected with PBS. Mice were euthanized on day 27 post start of treatment (24 hours following the final administration).

The test system of data set [3] is Yap1 mRNA. The data set can be described thus: Dose-dependent inhibition of human Yap1 in A-431 cells (Example 7, 10,000 cells per well, RTS36584). The format is cell-based. The conditions noted are these: free uptake; for Yap1 mRNA, % UTC: A-431 cells 10,000 cells per well, 48 hours. The procedure, abridged: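 Yap1 mRNA was expressed as percent of untreated control after normalization to total RNA (RIBOGREEN), and IC50 was derived by log/linear linear regression. The read-out used primer-probe set RTS36584 roughly 48 hours after free-uptake dosing of oligonucleotides into A-431 cells (10,000 cells/well).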

Where [4] appears, read: Table 58, A-431 cells 10,000 cells per well.
The mark [5] stands for this setting: Table 61, A-431 cells 10,000 cells per well.

Regarding “958497 (kA*kT*kA*dT*dG*dG*dA*dA*dA*dT*dT*dG*dT*k[5mC]*kT*k[5mC]) [compound 958497]”, in data set [1], the Kidney weight was found to be 0.35 g, the Liver weight turned out to be 1.31 g, the Spleen weight is 0.11 g and the body weight was determined as 23 g. For the same substance, in data set [2], the ALT was 46 U/L, the AST was 151 U/L, the BUN was determined as 26 mg/dL and the TBIL is listed as 0.24 mg/dL. Moreover, in data set [3] (Table 58, 15.6 nM), the “Yap1 mRNA, % UTC” value was found to be 82 % UTC. Besides, the “Yap1 mRNA, % UTC” value in data set [3] (Table 58, 62.5 nM) is 35 % UTC. For the same substance, in data set [3] (Table 58, 4000.00 nM), the “Yap1 mRNA, % UTC” value was found to be 3 % UTC. In addition, in data set [3] (setting [4]), the 50% inhibitory concentration (IC50) was 100 nM.
With “958596 (kA*kG*k[5mC]*dA*dG*dT*dT*dA*dA*dG*d[5mC]*dA*d[5mC]*kT*kT*kT; antisense) [compound 958596]”, in data set [1], the Kidney weight is 0.36 g, the Liver weight was 2.11 g, the Spleen weight was 0.13 g and the body weight is recorded as 25 g. Also, in data set [2], the ALT is 207 U/L, the AST was 162 U/L, the BUN turned out to be 24 mg/dL and the TBIL stood at 0.23 mg/dL. The “Yap1 mRNA, % UTC” value in data set [3] (Table 56, 15.6 nM) came to 69 % UTC. Also, the “Yap1 mRNA, % UTC” value in data set [3] (Table 56, 62.5 nM) is reported as 38 % UTC. In addition, in data set [3] (Table 56, 4000.00 nM), the “Yap1 mRNA, % UTC” value was 7 % UTC. The substance further registered an IC50 in data set [3] (Table 56, A-431 cells 10,000 cells per well) of 40 nM.
Take “958589 (kG*kT*kA*dA*dA*dG*dG*dA*dA*dG*dA*dT*d[5mC]*kT*k[5mC]*k[5mC]; antisense) [compound 958589]”: in data set [1], the Kidney weight was found to be 0.37 g, the Liver weight is 1.40 g, the Spleen weight was 0.10 g and the body weight came out at 25 g. In data set [2], the ALT was 35 U/L, the AST stood at 66 U/L, the BUN is 24 mg/dL and the TBIL worked out at 0.21 mg/dL. Moreover, the “Yap1 mRNA, % UTC” value in data set [3] (Table 61, 15.6 nM) turned out to be 75 % UTC. In data set [3] (Table 61, 62.5 nM), the “Yap1 mRNA, % UTC” value worked out at 50 % UTC. Besides, in data set [3] (Table 61, 4000.00 nM), the “Yap1 mRNA, % UTC” value was found to be 8 % UTC. The same substance displayed an IC50 in data set [3] (setting [5]) of 100 nM.
Regarding “958534 (kT*kT*k[5mC]*dA*dG*d[5mC]*dA*dT*dA*dG*dA*dA*dG*kT*kA*kG; antisense) [compound 958534]”, in data set [1], the Kidney weight stood at 0.32 g, the Liver weight is reported as 1.81 g, the Spleen weight stood at 0.09 g and the body weight amounted to 22 g. In data set [2], this substance had an ALT of 1962 U/L, an AST of 1617 U/L, a BUN of 26 mg/dL and a TBIL of 0.33 mg/dL. Further, the “Yap1 mRNA, % UTC” value in data set [3] (Table 61, 15.6 nM) turned out to be 85 % UTC. Further, the “Yap1 mRNA, % UTC” value in data set [3] (Table 61, 62.5 nM) turned out to be 48 % UTC. The “Yap1 mRNA, % UTC” value in data set [3] (Table 61, 4000.00 nM) is recorded as 9 % UTC. The substance further returned an IC50 in data set [3] (setting [5]) of 100 nM.
In data set [1], “958622 (kG*kA*kT*dA*dT*dT*d[5mC]*d[5mC]*dG*d[5mC]*dA*dT*dT*kG*k[5mC]*k[5mC]; antisense) [compound 958622]” gave a Kidney weight of 0.33 g, a Liver weight of 0.92 g, a Spleen weight of 0.12 g and a body weight of 23 g. In data set [2], this substance had an ALT of 224 U/L, an AST of 254 U/L, a BUN of 23 mg/dL and a TBIL of 0.24 mg/dL. Moreover, in data set [3] (Table 58, 15.6 nM), the “Yap1 mRNA, % UTC” value is 79 % UTC. Besides, the “Yap1 mRNA, % UTC” value in data set [3] (Table 58, 62.5 nM) turned out to be 50 % UTC. Besides, in data set [3] (Table 58, 4000.00 nM), the “Yap1 mRNA, % UTC” value was found to be 7 % UTC. The IC50 in data set [3] (setting [4]) came out at 100 nM.
